The values below are quoted from earlier work in EP3959200B1, “NEW TRIAZOLE AND TRIAZOLOTHIADIAZINE DERIVATIVES EXERTING CYTOTOXIC AND APOPTOTIC EFFECTS ON A549 CELLS THROUGH AKT INHIBITION” (Anadolu Universitesi, priority 2020, dated 2022).

The IC50 is the concentration at which inhibition is half-maximal. In general, GI50 refers to the concentration giving 50% growth inhibition.

The test system of series [1] is A549. The following applies: cited from earlier work.
In series [2] the test system is Huh7 cell line. The following applies: cited from earlier work.
The subject of series [3] is K562 cells. The following applies: cited from earlier work.
Series [4] has as its system kidney cancer (OU-31) cell line. Also noted: concentration or dose not given beside the values. The following applies: cited from earlier work.
The test system of series [5] is leukemia (MOLT-4) cell line. The following applies: cited from earlier work.
For series [6], the system named is leukemia (CCRF-CEM, RPMI-8226 and SR), non-small cell lung cancer (HOP-92), melanoma (UACC-62) and kidney cancer (UO-31) cells. Conditions: across CCRF-CEM, RPMI-8226, SR, HOP-92, UACC-62, UO-31; cited from earlier work.
Series [7] relates to 60 cell lines derived from lung, colon, skin, kidney, ovarian, central nervous system and blood cancers. Conditions: all cells tested; cited from earlier work.
The subject of series [8] is human breast cancer (MCF-7). Conditions: cited from earlier work.
In series [9] the test system is human lung cancer (A549). Conditions: cited from earlier work.
For series [10], the system named is Ehrlich acid tumor (EAC). Conditions: 25 mg/kg, body weight; cited from earlier work.
Series [11] deals with PC-3 cells. The following applies: cited from earlier work.
The subject of series [12] is human gastric cancer (NUGC), human liver cancer (HA22T and HepG2), nasopharyngeal cancer (HONE1), human breast cancer (MCF). The following applies: all other cancer cells tested except DLD1 cells; cited from earlier work.
Series [13] relates to normal fibroblast (WI38) cells. The following applies: cited from earlier work.
The subject of series [14] is 60 cell lines derived from leukemia, non-small cell lung cancer, skin, ovarian, prostate and breast cancers. Conditions: all cancer types tested; cited from earlier work.
The target in series [15] is alkaline phosphatase (ALP) enzyme. Conditions: cited from earlier work.

Turning to `Cc1ccc(C(C)C)c(OCC2=NNC(SCC(=O)Nc3ccc(Cl)cc3)N2Cc2ccccc2)c1` (stereo not drawn) [2-{[3-[[5-methyl-2-(propane-2-yl)phenoxy]methyl]-4-benzyl-4,5-dihydro-1H-1,2,4-triazole-5-yl]sulfanyl}-N-(4-chlorophenyl)acetamide], in [1], the IC50 was 7.9 µM. For `CCc1cccc2c3c([nH]c12)C(CC)(Cc1n[nH]c(=S)n1C)OCC3` (stereo not drawn) [5-[(1,8-Diethyl-1,3,4,9-tetrahydropyrano[3,4-b]indole-1-yl)methyl]-4-methyl-2,4-dihydro-3H-1,2,4-triazole-3-thione], the IC50 in series [2] was 4.29 µM. On to `CC(=O)Nc1ccc(OCC2=NNC(SCC(=O)Nc3ccc(Br)cc3)N2Cc2ccccc2)cc1` (stereo not drawn) [2-[(3-{[4-(acetylamino)phenoxy]methyl}-4-benzyl-4,5-dihydro-1H-1,2,4-triazole-5-yl)sulfanyl]-N-(4-bromophenyl)acetamide], for which the IC50 in [3] is 7.71 µM.

On to `O=C(CSc1nnc2n1N=C(c1ccc(Cl)cc1)CS2)c1ccc(F)cc1` [2-((6-(4-Chlorophenyl)-7H-[1,2,4]triazolo[3,4-b][1,3,4]thiadiazine-3-yl)thio-1-(4-fluorophenyl)ethanone], for which the growth in series [4] is given as 48.14%; in series [5], 49.82%. For the compound `OC(c1ccccc1)c1nnc(SCc2ccccc2)n1Cc1ccccc1` (stereo not drawn) [4-Benzyl-3-(benzylthio)-5-[hydroxy(phenyl)methyl]-4H-1,2,4-triazole], the antiproliferative activity in [6] is reported as 25-58%. Turning to `Fc1cc(C2=Nn3c(COc4ccccc4Cl)nnc3SC2=Cc2ccc(Cl)cc2)c(Cl)cc1Cl` [7-(4-chlorobenzylidene)-6-(2,4-dichloro-5-fluorophenyl)-3-((2-chlorophenoxy)methyl)-1,2,4-triazolo[3,4-b]-1,3,4-thiadiazine], in series [7], the GI50 was less than 10 µM.

On to `CC(C)(c1ccc(Cl)cc1)c1nnc2n1N=C(c1ccc(OC(F)(F)F)cc1)CS2` [3-(2-(4-chlorophenyl)propane-2-yl)-6-(4-(trifluoromethoxy)phenyl)-7H-[1,2,4]triazolo[3,4-b] [1,3,4]thiadiazine], for which the results for the IC50 in series [8] and in series [9] were 10.5 µM and 18.2 µM, respectively.

As to `Nn1c(S)nnc1-c1ccccc1Cl` [4-amino-5-mercapto-3-(2-chlorophenyl)-1,2,4-triazole], in series [10], the “tumor cell inhibition (TCI)” value was 63.59%. Regarding `Cc1ccc(C(C)C)c(OCc2nnc(SCC(=O)Nc3ccc(S(N)(=O)=O)cc3)n2Cc2ccccc2)c1` [2-{ [3-[[5-Methyl-2-(propane-2-yl)phenoxy]methyl)-4-benzyl-4,5-dihydro-1H-1,2,4-triazole-5-yl]sulfanyl}-N-(4-sulfamoilphenyl)acetamide], the IC50 in [11] is 5.96 µM.

With `c1ccc(C2=Nn3c(nnc3-c3ccncc3)SC2)cc1` [6-phenyl-3-(pyridine-4-yl)-7H-[1,2,4]triazolo[3,4-b][1,3,4]thiadiazine], the figures for the IC50 in [12] and in [13] were less than 0.8 µM and greater than 10 µM, respectively.

Turning to `Fc1cc(-c2nnc3n2N=C(c2ccc(Cl)cc2)CS3)c(Cl)cc1Cl` [3-(2,4-Dichloro-5-fluorophenyl)-6-(4-chlorophenyl)-1,2,4-triazolo[3,4-b]-1,3,4-thiadiazine], in series [14], the GI50 is 1.06 to 25.4 µM. Regarding `O=c1oc2ccccc2cc1C1=Nn2c(nnc2-c2cc3ccccc3oc2=O)SC1` [3,3'-(7/7-[1,2,4]Triazolo[3,4-b][1,3,4]thiadiazine-3,6-diyl)-bis(2H-chromen-2-one)], the IC50 in series [15] is 1.15 ± 1 µM.
